In patent US12655116B2, “Substituted isophthalic acid diamides” (Bayer Aktiengesellschaft, priority 2020, dated 2026):

What was measured:
ABUTH [1] = assay: Pre-emergence herbicidal action against ABUTH; assay type: in vivo, Abutilon theophrasti
Procedure, shortened: (§1)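 Greenhouse pots of sandy loam held seeds covered with soil, onto which the compound was applied before emergence. An aqueous suspension or emulsion of WP or EC was used at 600 to 800 l/ha with 0.2% wetting agent. Percent damage was judged visually at 3 weeks.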

ALOMY [2] = assay: Pre-emergence herbicidal action against ALOMY; assay type: in vivo, Alopecurus myosuroides; details: pre-emergence
Procedure, shortened: as §1

AMARE [3] = assay: Pre-emergence herbicidal action against AMARE; assay type: in vivo, Amaranthus retroflexus
Procedure, shortened: as §1

AVEFA [4] = assay: Pre-emergence herbicidal action against AVEFA; assay type: in vivo, Avena fatua; details: pre-emergence
Procedure, shortened: as §1

ECHCG [5] = assay: Pre-emergence herbicidal action against ECHCG; assay type: in vivo, Echinochloa crus-galli
Procedure, shortened: as §1

HORMU = assay: Pre-emergence herbicidal action against HORMU; assay type: in vivo, Hordeum murinum; details: 80 g/ha, pre-emergence
Excerpt: Seeds of monocotyledonous and dicotyledonous weed plants and crop plants are laid out in sandy loam soil in wood-fiber pots and covered with soil. The compounds of the invention, formulated in the form of wettable powders (WP) or as emulsion concentrates (EC), are then applied to the surface of the covering soil in the form of an aqueous suspension or emulsion at a water application rate equivalent to 600 to 800 l/ha, with addition of 0.2% wetting agent. After the treatment, the pots are placed in a greenhouse and kept under good growth conditions for the trial plants. The damage to the test plants is scored visually after a test period of 3 weeks by comparison with untreated controls (herbicidal activity in percent (%): 100% activity=the plants have died, 0% activity=like control plants). […] The tables below illustrate, in an illustrative manner, the post-emergence herbicidal action of the compounds of the invention, the herbicidal activity being stated in percent.

LOLRI = assay: Pre-emergence herbicidal action against LOLRI; assay type: in vivo, Lolium rigidum; details: 80 g/ha
Procedure, shortened: as §1

MATIN [6] = assay: Pre-emergence herbicidal action against MATIN; assay type: in vivo, Matricaria inodora
Procedure, shortened: as §1

SETVI [7] = assay: Pre-emergence herbicidal action against SETVI; assay type: in vivo, Setaria viridis
Procedure, shortened: as §1

STEME [8] = assay: Pre-emergence herbicidal action against STEME; assay type: in vivo, Stellaria media
Procedure, shortened: as §1

VERPE = assay: Pre-emergence herbicidal action against VERPE; assay type: in vivo, Veronica persica; details: dosage 80 g/ha
Procedure, shortened: as §1

VIOTR [9] = assay: Pre-emergence herbicidal action against VIOTR; assay type: in vivo, Viola tricolor
Procedure, shortened: as §1

DIGSA [10] = assay: Pre-emergence herbicidal action against DIGSA; assay type: in vivo, Digitaria sanguinalis
Procedure, shortened: as §1

ABUTH [11] = assay: Post-emergence herbicidal action against ABUTH; assay type: in vivo, Abutilon theophrasti; details: visual assessment about 3 weeks after treatment vs untreated controls
Procedure, shortened: (§2)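 A WP or EC formulation diluted in water with 0.2% wetting agent was sprayed at 600 to 800 l/ha onto one-leaf-stage plants grown in sandy loam. About 3 weeks later, action was rated visually in percent, 100% being dead plants.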

ALOMY [12] = assay: Post-emergence herbicidal action against ALOMY; assay type: in vivo, Alopecurus myosuroides; details: dosage 20 g/ha, visual assessment about 3 weeks after treatment vs untreated controls
Procedure, shortened: as §2

AMARE [13] = assay: Post-emergence herbicidal action against AMARE; assay type: in vivo, Amaranthus retroflexus; details: 20 g/ha, visual assessment about 3 weeks after treatment, 100% = plants have died, 0% = like control plants
Procedure, shortened: as §2

AVEFA [14] = assay: Post-emergence herbicidal action against AVEFA; assay type: in vivo, Avena fatua; details: Avena fatua, 504 h, 20 g/ha, visual assessment about 3 weeks after treatment, 100% = plants have died, 0% = like control plants
Procedure, shortened: as §2

ECHCG [15] = assay: Post-emergence herbicidal action against ECHCG; assay type: in vivo, Echinochloa crus-galli
Procedure, shortened: as §2

MATIN [16] = assay: Post-emergence herbicidal action against MATIN; assay type: in vivo, Matricaria inodora
Procedure, shortened: as §2

PHBPU [17] = assay: Post-emergence herbicidal action against PHBPU; assay type: in vivo, Pharbitis purpurea; details: Ipomoea purpurea, 504 h
Procedure, shortened: as §2

SETVI [18] = assay: Post-emergence herbicidal action against SETVI; assay type: in vivo, Setaria viridis
Procedure, shortened: as §2

STEME [19] = assay: Post-emergence herbicidal action against STEME; assay type: in vivo, Stellaria media
Procedure, shortened: as §2

VIOTR [20] = assay: Post-emergence herbicidal action against VIOTR; assay type: in vivo, Viola tricolor; details: Viola tricolor, 504 h
Procedure, shortened: as §2

DIGSA [21] = assay: Post-emergence herbicidal action against DIGSA; assay type: in vivo, Digitaria sanguinalis
Procedure, shortened: as §2

PHBPU [22] = assay: Pre-emergence herbicidal action against PHBPU; assay type: in vivo, Pharbitis purpurea; details: dosage 80 g/ha
Procedure, shortened: as §1

[23] = Tripleurospermum inodorum, 504 h, dosage 20 g/ha
[24] = Setaria viridis, 504 h, dosage 20 g/ha
[25] = 80 g/ha, scored visually after 3 weeks vs untreated controls (100% = plants have died, 0% = like control plants)

Structure (SMILES): CCNC(=O)c1c(C(F)(F)F)ccc(C(=O)Nc2nnnn2C)c1Cl [Example 1-130]
- pest or weed control at 80 g/ha (ABUTH [1]; Abutilon theophrasti, 504 h, 80 g/ha, scored visually after 3 weeks vs untreated controls (100% = plants have died, 0% = like control plants)): 100%
- pest or weed control at 20 g/ha (ABUTH [1]; Abutilon theophrasti, 504 h, dosage 20 g/ha, scored visually after 3 weeks vs untreated controls, 100% = plants have died, 0% = like control plants, read-out: Pre-emergence action against ABUTH (herbicidal activity in percent)): 100%
- pest or weed control at 80 g/ha (ALOMY [2]; Alopecurus myosuroides, 504 h, 80 g/ha, scored visually after 3 weeks vs untreated controls (100% = plants have died, 0% = like control plants)): 100%
- pest or weed control at 20 g/ha (ALOMY [2]; Alopecurus myosuroides, 504 h, 20 g/ha, scored visually after 3 weeks, 100% = plants have died, 0% = like control plants): 100%
- pest or weed control at 20 g/ha (AMARE [3]; Amaranthus retroflexus, 504 h, 20 g/ha, scored visually after 3 weeks vs untreated controls, 100% = plants have died, 0% = like control plants): 100%
- pest or weed control at 80 g/ha (AMARE [3]; Amaranthus retroflexus, 504 h, 80 g/ha, scored visually after 3 weeks vs untreated controls, 100% = plants have died, 0% = like control plants): 100%
- pest or weed control at 80 g/ha (AVEFA [4]; Avena fatua, 504 h, 80 g/ha): 100%
- pest or weed control at 20 g/ha (AVEFA [4]; Avena fatua, 504 h, 20 g/ha, scored visually after 3 weeks, 100% = plants have died, 0% = like control plants): 100%
- pest or weed control at 20 g/ha (ECHCG [5]; Echinochloa crus-galli, 504 h, 20 g/ha): 90%
- pest or weed control at 80 g/ha (ECHCG [5]; Echinochloa crus-galli, 504 h, 80 g/ha): 100%
- pest or weed control at 80 g/ha (HORMU; Hordeum murinum, 504 h): 90%
- pest or weed control at 80 g/ha (LOLRI; Lolium rigidum, 504 h): 100%
- pest or weed control at 20 g/ha (MATIN [6]; [23]): 100%
- pest or weed control at 80 g/ha (MATIN [6]; Tripleurospermum inodorum, 504 h, dosage 80 g/ha): 100%
- pest or weed control at 20 g/ha (SETVI [7]; [24]): 90%
- pest or weed control at 80 g/ha (SETVI [7]; Setaria viridis, 504 h, dosage 80 g/ha): 100%
- pest or weed control at 20 g/ha (STEME [8]; Stellaria media, 504 h, dosage 20 g/ha): 100%
- pest or weed control at 80 g/ha (STEME [8]; Stellaria media, 504 h, dosage 80 g/ha): 100%
- pest or weed control at 80 g/ha (VERPE; Veronica persica, 504 h): 80%
- pest or weed control at 20 g/ha (VIOTR [9]; Viola tricolor, 504 h, dosage 20 g/ha): 100%
- pest or weed control at 80 g/ha (VIOTR [9]; Viola tricolor, 504 h, dosage 80 g/ha): 100%
- pest or weed control at 20 g/ha (DIGSA [10]; Digitaria sanguinalis, 504 h, dosage 20 g/ha): 100%
- pest or weed control at 80 g/ha (DIGSA [10]; Digitaria sanguinalis, 504 h, dosage 80 g/ha): 100%
- pest or weed control at 5 g/ha (ABUTH [11]; Abutilon theophrasti, 504 h, dosage 5 g/ha): 90%
- pest or weed control at 20 g/ha (ABUTH [11]; Abutilon theophrasti, 504 h, dosage 20 g/ha): 90%
- pest or weed control at 20 g/ha (ALOMY [12]; Alopecurus myosuroides, 504 h): 80%
- pest or weed control at 20 g/ha (AMARE [13]; Amaranthus retroflexus, 504 h): 90%
- pest or weed control at 20 g/ha (AVEFA [14]): 80%
- pest or weed control at 5 g/ha (ECHCG [15]; Echinochloa crus-galli, 504 h, dosage 5 g/ha): 80%
- pest or weed control at 20 g/ha (ECHCG [15]; Echinochloa crus-galli, 504 h, dosage 20 g/ha): 80%
- pest or weed control at 20 g/ha (MATIN [16]; [23]): 80%
- pest or weed control at 5 g/ha (PHBPU [17]; dosage 5 g/ha): 80%
- pest or weed control at 20 g/ha (PHBPU [17]; dosage 20 g/ha): 90%
- pest or weed control at 20 g/ha (SETVI [18]; [24]): 80%
- pest or weed control at 20 g/ha (STEME [19]; Stellaria media, 504 h, 20 g/ha): 80%
- pest or weed control at 5 g/ha (STEME [19]; Stellaria media, 504 h, dosage 5 g/ha): 80%
- pest or weed control at 5 g/ha (VIOTR [20]; 5 g/ha): 90%
- pest or weed control at 20 g/ha (VIOTR [20]; 20 g/ha): 90%
- pest or weed control at 5 g/ha (DIGSA [21]; Digitaria sanguinalis, 504 h, 5 g/ha): 90%
- pest or weed control at 20 g/ha (DIGSA [21]; Digitaria sanguinalis, 504 h, 20 g/ha): 90%

Structure (SMILES): CCc1c(C(=O)Nc2nnnn2CC)ccc(C(F)(F)F)c1C(=O)NC1CC1 [Example 2-273]
- Pre-emergence action against ABUTH (herbicidal activity) (ABUTH [1]; [25]): 90%
- Pre-emergence action against ABUTH (herbicidal activity in percent) (ABUTH [1]; dosage 20 g/ha, scored visually after 3 weeks vs untreated controls, 100% = plants have died, 0% = like control plants): 90%
- Pre-emergence action against ALOMY (herbicidal activity) (ALOMY [2]; [25]): 90%
- Pre-emergence action against AMARE in % (AMARE [3]; 20 g/ha, scored visually after 3 weeks vs untreated controls, 100% = plants have died, 0% = like control plants): 90%
- Pre-emergence action against AMARE in % (AMARE [3]; [25]): 100%
- Pre-emergence action against AVEFA in % (AVEFA [4]; 80 g/ha): 90%
- Pre-emergence action against ECHCG in % (ECHCG [5]; 80 g/ha): 90%
- Pre-emergence action against HORMU in % (HORMU): 80%
- Pre-emergence action against LOLRI in % (LOLRI): 80%
- Pre-emergence action against MATIN in % (MATIN [6]; dosage 20 g/ha): 100%
- Pre-emergence action against MATIN in % (MATIN [6]; dosage 80 g/ha): 100%
- Pre-emergence action against PHBPU in % (PHBPU [22]): 90%
- Pre-emergence action against SETVI in % (SETVI [7]; dosage 20 g/ha): 80%
- Pre-emergence action against SETVI in % (SETVI [7]; dosage 80 g/ha): 90%
- Pre-emergence action against STEME in % (STEME [8]; dosage 20 g/ha): 90%
- Pre-emergence action against STEME in % (STEME [8]; dosage 80 g/ha): 90%
- Pre-emergence action against VERPE in % (VERPE): 100%
- Pre-emergence action against VIOTR in % (VIOTR [9]; dosage 20 g/ha): 90%
- Pre-emergence action against VIOTR in % (VIOTR [9]; dosage 80 g/ha): 100%
- Pre-emergence action against DIGSA in % (DIGSA [10]; dosage 20 g/ha): 100%
- Pre-emergence action against DIGSA in % (DIGSA [10]; dosage 80 g/ha): 100%
- Post-emergence action against ABUTH in % (ABUTH [11]; dosage 5 g/ha): 90%
- Post-emergence action against ABUTH in % (ABUTH [11]; dosage 20 g/ha): 90%
- Post-emergence action against ALOMY in % (ALOMY [12]): 80%
- Post-emergence action at 20 g/ha against AMARE in % (AMARE [13]): 90%
- Post-emergence action against ECHCG in % (ECHCG [15]; dosage 5 g/ha): 80%
- Post-emergence action against ECHCG in % (ECHCG [15]; dosage 20 g/ha): 90%
- Post-emergence action against MATIN in % (MATIN [16]; dosage 5 g/ha): 80%
- Post-emergence action against MATIN in % (MATIN [16]; dosage 20 g/ha): 90%
- Post-emergence action against SETVI in % (SETVI [18]; dosage 5 g/ha): 80%
- Post-emergence action against SETVI in % (SETVI [18]; dosage 20 g/ha): 90%
- Post-emergence action against STEME in % (STEME [19]; 20 g/ha): 90%
- Post-emergence action against STEME in % (STEME [19]; dosage 5 g/ha): 80%
- Post-emergence action against DIGSA in % (DIGSA [21]; 5 g/ha): 80%
- Post-emergence action against DIGSA (DIGSA [21]; 20 g/ha): 90%
